Reference: patent US20060252798A1, “Metal ion chelators and therapeutic use thereof” (priority 2003, published 2006)
Read-outs that look alike come from different tables or passages of the source.

Columns and labels:
intracellular ROS = assay: Intracellular ROS assay (DCF-DA, flow cytometry), M109 cells; assay type: cell-based, mouse; details: 50 μM, 10 min, positive control
Experimental: Intracellular ROS generation was assessed using the cell-permeable dye 2′,7′-dichlorofluorescein-diacetate (DCF-DA) (Sigma). DCF-DA readily diffuses into cells and becomes highly fluorescent when oxidised by O2^•−, H2O2, or OH^−.^29 Cellular fluorescence intensity is directly proportional to the level of intracellular ROS.^29 M109 cells (1×10^5 cells/well) were incubated with or without 1 μM Dp44mT for 0-48 h or 50 μM H2O2 (positive control) for 10 min at 37° C. The cells were then incubated with DCF-DA (5 μM) for 20 min at 37° C., washed twice, and detached from the culture plates. The fluorescence of oxidised DCF in cells was measured using flow cytometry.^29)
To test whether induction of h-cytc release from the mitochondrion (FIG. 15A) and the imbalance of Bcl-2/Bax expression (FIG. 15B) was due to the presence of ROS, intracellular ROS were measured by flow cytometry using the DCFH-DA probe which becomes fluorescent when oxidised by O2^•−, H2O2, or OH^−.^29 Incubation of M109 cells with Dp44mT (1 μM) increased the levels of oxidised probe as a function of time. After 2 h, a 25±10% increase in oxidised DCFH-DA fluorescence was found compared to the 0 h time point, and this increased to 486±96% after 48 h (FIG. 15C). For comparison, a 10 min incubation with the positive control, H2O2 (50 μM), increased fluorescence to 1312±46% of the 0 h time point (FIG. 15C)

DU 145 prostate cancer = assay: MTT cellular proliferation assay, DU 145; assay type: cell-based; details: 0-50 μM, 72 h, 2 experiments
Experimental: (§1) The final concentration of the compounds was 0.39-50 μM. […] […] After this incubation, 0.01 mL of MTT was added to each well and the plates incubated for 2 h at 37° C. The cells were then solubilised by adding 0.1 mL of 10% SDS-50% isobutanol in 0.01 M HCl and the plates then read at 570 nm on a scanning multiwell spectrophotometer (Titertek Multiscan; Beckman Instruments Inc, California). MTT colour formation was directly proportional to the number of viable cells.
(§2) At the end of the incubation period, cell density was determined by the MTT assay (described above).

[1] = test system: iron regulatory proteins (IRPs); assay: IRP-RNA-binding activity, gel-retardation assay, SK-N-MC cells; assay type: cell-based, human; details: DFO 100 μM, FAC 100 μg/ml, other chelators 25 μM, 20 h (FIG. 8)
Experimental: The IRP-RNA-binding activity was then assessed by the gel-retardation assay. Aliquots of cell lysate containing 2 μg of protein were incubated with 0.1 ng (approximately 1×10^5 cpm) of ^32P-labelled riboprobe for 30 min at room temperature. Using this protocol the level of RNA added was saturating. Unprotected probe was degraded by incubation with 1 U of RNAse T1 for 10 min at room temperature. Heparin (5 mg/ml) was then added for another 10 min to exclude non-specific binding. The IRE-protein complexes were analyzed on 6% non-denaturing polyacrylamide gels. In parallel experiments, samples were treated with ferricyanide (FeCN, 5 mM) and 0.5% β-mercaptoethanol (β-ME), prior to addition of the IRE probe. This procedure results in the conversion of IRP1, whether spontaneously active or not, into an active IRE-binding form.^22

H69AR lung cancer = assay: MTT cellular proliferation assay, H69AR; assay type: cell-based; details: 0-50 μM, 72 h, 1 experiment
Experimental: as §1, §2

[2] = test system: SK-N-MC neuroepithelioma cells; assay: 3H-thymidine incorporation by SK-N-MC cells; assay type: cell-based, human; details: 20 h incubation then 2 h label; Mean ± SD, 4 experiments
Experimental: (§3) After a 20 h incubation of the SK-N-MC cells with a selection of analogues, ^3H-thymidine, ^3H-leucine, or ^3H-uridine (1 μCi/ml) was added for 2 h at 37° C. The cells were detached from the 96 well plate using 1 mM EDTA in Ca(II)/Mg(II)-free PBS and collected and washed using a cell harvester (Tomtec Harvester 96, Linbrook, Queensland, Australia). Radioactivity was measured on a P-scintillation counter (LKB Wallace, Turku, Finland).

GADD45 and WAF1 mRNA = assay: Northern blot of WAF1 and GADD45 mRNA expression in SK-N-MC cells; assay type: cell-based, human; details: DFO 100 μM, other chelators 25 μM, 20 h at 37° C. (FIG. 7)
Experimental: FIG. 7. […] Northern blotting was performed using standard procedures (see Example 6).
Northern blot analysis was performed by isolating total RNA using the Total RNA Isolation Reagent (Advanced Biotechnologies Ltd, Surrey, United Kingdom). The membranes were hybridised with probes specific for human WAF1, GADD45, and β-actin. The WAF1 probe consisted of a 1 kb fragment from pSXV (ATCC; Cat. No. 79928). The GADD45 probe consisted of a 760 bp fragment from human GADD45 cDNA cloned into pHu145B2 (kindly supplied by Dr. Albert Fornace, National Cancer Institute, NIH, Maryland). The β-actin probe consisted of a 1.4 kb fragment from human β-actin cDNA cloned into pBluescript SK− (ATCC; Cat. No. 37997).

HEP G2 Hepatoma = assay: MTT cellular proliferation assay, HEP G2; assay type: cell-based; details: 0-50 μM, 72 h, 1 experiment
Experimental: as §1, §2

NCI H2452 mesothelioma = assay: MTT cellular proliferation assay, NCI H2452; assay type: cell-based; details: 0-50 μM, 72 h, 3 experiments
Experimental: as §1, §2

MRC-5 fibroblasts = assay: MTT cellular proliferation assay, MRC-5 fibroblasts; assay type: cell-based, human
Experimental: as §1
The MRC-5 cell type is a normal human lung fibroblast cell strain that is mortal and senesces after a number of passages in vitro. The SK-N-MC neuroepithelioma cell type is immortal.
(§4) Dp2mT served as a negative control.

[3] = test system: SK-N-MC neuroepithelioma cells; assay: 3H-uridine incorporation by SK-N-MC cells; assay type: cell-based, human; details: 20 h incubation then 2 h label; Mean ± SD, 3 experiments
Experimental: as §3

[4] = test system: SK-N-MC neuroepithelioma cells; assay: MTT cellular proliferation assay, SK-N-MC; assay type: cell-based, human
Experimental: […] […] After this incubation, 0.01 mL of MTT was added to each well and the plates incubated for 2 h at 37° C. The cells were then solubilised by adding 0.1 mL of 10% SDS-50% isobutanol in 0.01 M HCl and the plates then read at 570 nm on a scanning multiwell spectrophotometer (Titertek Multiscan; Beckman Instruments Inc, California). MTT colour formation was directly proportional to the number of viable cells.
The effect of the compounds on the proliferation of SK-N-MC neuroepithelioma cells was examined using the MTT assay (described above).
as §4

[5] = test system: SK-N-MC neuroepithelioma cells; assay: 3H-leucine incorporation by SK-N-MC cells; assay type: cell-based, human; details: 20 h incubation then 2 h label; Mean ± SD, 4 experiments
Experimental: as §3

M109 carcinoma cells = assay: 59Fe uptake from 59Fe-Tf by M109 cells; assay type: cell-based, mouse; details: 1 μM
Experimental: The ability of the compound Dp44mT to inhibit the growth of M109 lung carcinoma cells in mice was assessed. Studies were performed using M109 carcinoma cells in culture to determine the effect of Dp44mT on mobilising ^59Fe from these cells (FIG. 11C) and inhibiting ^59Fe uptake from ^59Fe-Tf (FIG. 11D). As internal controls, cells were incubated with DFO and 311. The effect of compound concentration on increasing ^59Fe mobilisation from M109 cells was examined by labelling cells with ^59Fe-Tf (0.75 μM) for 3 h at 37° C. followed by washing and reincubation with the respective compounds (0.2-25 μM) for 3 h at 37° C. (FIG. 11C). […] In contrast, 311 increased cellular ^59Fe release from 8±1% (control medium) to […] at 5 μM (FIG. 11C). For Dp44mT ^59Fe release plateaued at 2 μM, resulting in the efflux of 48±2% of ^59Fe (FIG. 11C).
At 1 μM, 311 reduced ^59Fe uptake to 40±4% of the control. […] Dp44mT had similar activity to 311 up to a concentration of 5 μM, where it reduced ^59Fe uptake to 30±1% of the control (FIG. 11D).

Ndrg1 = Ndrg1 expression in MCF-7 cells (Western blotting); assay type: cell-based, human; details: 25 μM, 24 h, MCF-7 cells (FIG. 16)
Experimental: FIG. 16. […] The expression of Ndrg1 and β-actin protein levels were assessed by Western blotting.
MCF-7 cells were incubated for 24 h with a range of metal ion chelators. […] Dp2mT was used as a negative control, […]

SK-Mel-28 melanoma cells = assay: MTT cellular proliferation assay, SK-Mel-28; assay type: cell-based, human; details: Table 3, 72 h, mean ± SD
Experimental: as §1, §4
(§5) Dp2mT served as a negative control as the methyl group at the 2-position hinders Fe-chelation.

[6] = test system: MCF-7 breast cancer cells; assay: MTT cellular proliferation assay, MCF-7; assay type: cell-based, human; details: values given in Example 8; read-out: IC50, anti-proliferative activity in MCF-7 cells
Experimental: […] […] […] After this incubation, 0.01 mL of MTT was added to each well and the plates incubated for 2 h at 37° C. The cells were then solubilised by adding 0.1 mL of 10% SDS-50% isobutanol in 0.01 M HCl and the plates then read at 570 nm on a scanning multiwell spectrophotometer (Titertek Multiscan; Beckman Instruments Inc, California). MTT colour formation was directly proportional to the number of viable cells.
as §4, §5

IMR-32 Neuroblastoma = assay: MTT cellular proliferation assay, IMR-32; assay type: cell-based; details: 0-50 μM, 72 h, 1 experiment
Experimental: as §1, §2

[7] = test system: SK-N-MC neuroepithelioma cells; assay: 59Fe uptake from 59Fe-transferrin by SK-N-MC neuroepithelioma cells; assay type: cell-based, human; details: 0.5-50 μM, 3 h; PCTH internal control (FIG. 5B)
Experimental: The cells were then placed on ice and washed four times with ice-cold Hank's balanced salt solution (BSS) to remove non-specifically bound ^59Fe-Tf. Cells were then incubated with the general protease, pronase (1 mg/ml), for 30 min at 4° C. to remove membrane-bound ^59Fe and Tf.
PCTH was used as an internal control.

[8] = test system: SK-N-MC neuroepithelioma cells; assay: 59Fe mobilization from prelabelled SK-N-MC neuroepithelioma cells; assay type: cell-based, human
Experimental: The effect of chelators on ^59Fe release from prelabelled cells was studied using standard procedures.^18 Cells were prelabelled with ^59Fe-transferrin (0.75 μM) for 3 h at 37° C. […] The overlying medium was then removed and placed into γ-counting tubes. The cells were removed from the petri dishes in 1 ml of BSS using a plastic spatula and transferred to a separate set of γ-counting tubes.
The ability of the compounds to mobilise ^59Fe from SK-N-MC neuroepithelioma cells was assessed after a 3 h labelling period with ^59Fe-Tf (0.75 μM) at 37° C. […]
DFO and 311 were used as internal standards.

[9] = Table 2, MTT assay, 90 h incubation, Mean ± SD, 4 experiments, read-out: IC50 Values of Chelators

OO [H2O2]
fluorescence (intracellular ROS): 1312±46 % of the 0 h time point

O=C(NN=Cc1c(O)ccc2ccccc12)c1ccncc1 [compound 311, 2-hydroxy-1-naphthylaldehyde isonicotinoyl hydrazone]
IC50 (DU 145 prostate cancer): 1940 nM | IRP-RNA binding activity [1]: increase | IC50 (H69AR lung cancer): 970 nM | 3H-Thymidine Incorporation [2]: 0.1 ± 0.1 % Control | GADD45 and WAF1 mRNA expression (GADD45 and WAF1 mRNA): up-regulation | IC50 (HEP G2 Hepatoma): 1180 nM | IC50 (NCI H2452 mesothelioma): 470 nM | IC50 (MRC-5 fibroblasts; Table 3, normal cells, 72 h, MTT, read-out: IC50 MRC-5 fibroblasts): > 25000 nM | 3H-Uridine Incorporation [3]: 5 ± 2 % Control | IC50 [4, 9]: 3000 ± 2000 nM | IC50 ([4]; Table 3, 0-25 μM, 72 h, MTT, mean ± SD, read-out: IC50 SK-N-MC neuroepithelioma): 300 nM | 3H-Leucine Incorporation [5]: 2 ± 1 % Control | 59Fe uptake (M109 carcinoma cells): 40±4 % of the control | up-regulation of Ndrg1 (Ndrg1): markedly increased | IC50 (SK-Mel-28 melanoma cells): 900 ± 500 nM | IC50 [6]: 600 nM | IC50 (IMR-32 Neuroblastoma): 300 nM

di-2-pyridylketone 2-thiophenecarboxaldehyde hydrazone [PKTH]
IC50 (DU 145 prostate cancer): 1430 nM | IC50 (H69AR lung cancer): 780 nM | 3H-Thymidine Incorporation [2]: 0.04 ± 0.01 % Control | GADD45 and WAF1 mRNA expression (GADD45 and WAF1 mRNA): pronounced effect | prevention of 59Fe uptake as a function of concentration [7]: higher efficacy than the control PCTH | IC50 (NCI H2452 mesothelioma): 730 nM | IC50 (MRC-5 fibroblasts; Example 4c, FIG. 6, read-out: IC50 values in fibroblasts): 16000 nM | 3H-Uridine Incorporation [3]: 5 ± 1 % Control | IC50 [4, 9]: 3000 ± 1000 nM | 3H-Leucine Incorporation [5]: 19 ± 8 % Control | IC50 (IMR-32 Neuroblastoma): 300 nM | 59Fe mobilisation as a function of concentration ([8]; 0.5-50 μM, 3 h, PCTH internal control (FIG. 5A)): more effective than PCTH | cellular 59Fe released ([8]; chelator 1 μM, 3 h reincubation at 37° C. (FIG. 5A)): 26%

ferric ammonium citrate [FAC]
IRP-RNA binding activity [1]: decreased
